Experimental data from US12485092B2, “Composition for promoting drug release of drug-delivery liposomes” (INDUSTRY ACADEMY COOPERATION FOUNDATION OF SEJONG UNIVERSITY, priority 2022, dated 2025).

What was measured:
[1] = test system: HCT-116 colorectal cancer cells
in vivo = settings: SD, rat, iv, 5 mg/kg
Procedure: Eight week-old SD rats were randomly divided into three groups (doxorubicin, CAELYX and CAELYX+omega liposome), respectively. Each group was anesthetized with 100 mg/kg of ketamine, followed by inserting polyethylene tubes into the jugular vein and the carotid for drug injection and blood gathering, respectively. To the three groups, the doxorubicin solution, CAELYX and a CAELYX+omega liposome mixture were intravenously administered through the jugular vein at a 5 mg/kg doxorubicin dose. Thereafter, 120 μL of blood was collected at 1, 5, 15, 30, 60, 120, 180, 240, 360, 480, 720, 960, 1,440, 2,160 and 2,880 minutes, respectively, and centrifuged, followed by gathering 50 μl of plasma to analyze a doxorubicin concentration through HPLC. In order to prevent blood coagulation after blood gathering, 0.3 mL of physiological saline for injection containing 201U of heparin was flushed. In addition, after drug administration, urine was collected up to 24 hours and measured for volume.
For quantification of doxorubicin concentration in plasma and urine, 100 μL of acetonitrile and 15 μL of 15 μg/mL daunorubicin (internal standard material) were added and well mixed in 50 μL of the plasma or urine, and then centrifuged at 13,000 rpm for 5 minutes to remove the plasma protein. Thereafter, 100 μL of the supernatant was introduced into HPLC column (reversed phase column, particle size 5 inner diameter 4.6 mm, length 250 mm). Mobile phase composed of 68:32 (v/v) mixture of water (pH 2.60) and acetonitrile was used at a flow rate of 1 mL/min. For detection of drugs, a fluorescence detector was used wherein excitation (Ex) wavelength is 475 nm and emission (Em) wavelength is 555 nm.
The plasma concentration of doxorubicin quantified by HPLC assay was used to calculate pharmacokinetic parameters using WinNonlin program. For statistical analysis of the pharmacokinetic parameters among the above three groups, Tukey's test was carried out after performing analysis of variance (ANOVA), wherein P<0.05 is considered to be statistically significant.

- IC50 [1]: 265 nM
- AUC (in vivo): 9820 ng·h/mL
- MRT (in vivo): 1.18 h
- clearance (in vivo): 8.91 ± 2.06 mL/min/kg
- half-life (in vivo): 1.97 h
- IC50 (B16-F10 melanoma cells): 191 nM
SMILES: COc1cccc2c1C(=O)c1c(O)c3c(c(O)c1C2=O)C[C@@](O)(C(=O)CO)C[C@@H]3O[C@H]1C[C@H](N)[C@H](O)[C@H](C)O1 [Doxorubicin solution, doxorubicin]
